This assay addresses T1, human ADRA2B receptor (Homo sapiens, UniProt P18089).
T1 construct: expressed in transfected cells
T1 sequence (P18089 1-450): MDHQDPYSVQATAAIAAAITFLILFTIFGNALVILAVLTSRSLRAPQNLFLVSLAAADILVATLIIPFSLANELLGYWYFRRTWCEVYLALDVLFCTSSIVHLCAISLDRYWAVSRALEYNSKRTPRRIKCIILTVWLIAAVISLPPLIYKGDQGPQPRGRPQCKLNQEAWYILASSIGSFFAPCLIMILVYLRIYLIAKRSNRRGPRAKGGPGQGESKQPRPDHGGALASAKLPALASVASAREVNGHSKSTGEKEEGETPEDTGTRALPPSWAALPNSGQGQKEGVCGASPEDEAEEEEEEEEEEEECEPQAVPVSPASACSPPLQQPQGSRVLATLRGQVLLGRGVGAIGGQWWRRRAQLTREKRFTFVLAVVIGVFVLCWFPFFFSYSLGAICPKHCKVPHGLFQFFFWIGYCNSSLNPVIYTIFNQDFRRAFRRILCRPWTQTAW
As to the kind of experiment: GTPγS agonist assay, ADRA2B receptor. Format: biochemical. The settings on record: read-out: GTPase - Human Alpha2B EC50. The procedure:
GTP ? S Agonist Assays (ADRA2A, ADRA2B, and ADRA2C Receptors)
Membranes were prepared for GTP ? S binding assays from CHO-K1 cells stably expressing human ADRA2A, ADRA2B, or ADRA2C receptor. Briefly, cells were grown in 5-layer cell culture flasks. Cells were washed with 50 mL of PBS and then dissociated with 0.05% trypsin. Dissociated cells were then collected by centrifugation at 650×g for 8 min at 4° C. Pellets were washed again in PBS by centrifugation and resuspended in 30 mL of 20 mM HEPES, 10 mM EDTA, pH 7.4. After sitting on ice for 30 min, membranes were collected by centrifugation at 50000×g for 15 min at 4° C., resuspended in 30 mL of 20 mM HEPES, 0.1 mM EDTA, pH 7.4 and collected again by centrifugation. Pellets were then washed twice by centrifugation in 30 mL of 20 mM HEPES, pH 7.4, and stored at −80° C. until the day of the assay. On the day of the assay, pellets were thawed on ice and resuspended in 1 mL of 20 mM HEPES, pH 7.4, 10 mM MgCl2, 100 mM NaCl using dounce homogenization. Membrane protein concentration was determined by BCA protein assay (Promega, Madison, WI) according to Promega guidelines.
On the day of the assay, serial dilutions of test compounds were brought up in assay buffer (20 mM HEPES, 10 mM MgCl2, 200 mM NaCl) at 10× final assay concentration. 50 μL/well of membrane homogenates (containing 5 μg of membrane protein for ADRA2A, ADRA2B, or 7.5 μg for ADRA2C) were prepared in assay buffer supplemented with GDP at 2× final assay concentration (5 μM GDP) and dispensed into 96 well polypropylene, U-bottom Greiner plates. Then, 10 μL of compounds were added to assay plates and incubated for 10 min at room temperature. […] The binding reaction was incubated for 1 h at 37° C. Membranes in assay reactions were then transferred to GF/C filter plates (UniFilter, Perkin Elmer) and washed three times using a FilterMate Harvester (Perkin Elmer) with cold assay buffer containing no GDP. Filter plates were then dried at 40° C. overnight followed by the addition of 30 μL/well of Beta Plate Scintillation liquid. Plates were top and bottom sealed before being read on TopCount scintillation counter (Perkin Elmer, Waltham, MA).

The results in this text go back to patent US20260042769A1, “TRIARYL AGONISTS OF ALPHA-2 ADRENERGIC RECEPTORS” (ALCEPTOR THERAPEUTICS, INC., priority 2023, published 2026).

SMILES strings stand for the structures.

With `COc1nccc(C[C@H](c2c[nH]cn2)c2cccc(C)c2C)n1` [Compound 53, 4-[(2S)-2-(2,3-dimethylphenyl)-2-(1H-imidazol-4-yl)ethyl]-2-methoxy-pyrimidine], the EC50 – broadly, the midpoint of the concentration-response curve – was < 0.01 µM.
Take `COc1nccc(C[C@@H](c2cnc[nH]2)c2cccc(C)c2C)n1` [Compound 54, 4-[(2R)-2-(2,3-dimethylphenyl)-2-(1H-imidazol-4-yl)ethyl]-2-methoxy-pyrimidine]: the EC50 is 0.05 to 0.5 µM.
With `Cc1cccc([C@H](Cc2cccnn2)c2cnc[nH]2)c1C` [Compound 55, 3-[(2S)-2-(2,3-dimethylphenyl)-2-(1H-imidazol-4-yl)ethyl] pyridazine] the figure was 0.01 to 0.05 µM; with `Cc1cccc([C@@H](Cc2cccnn2)c2cnc[nH]2)c1C` [Compound 56, 3-[(2R)-2-(2,3-dimethylphenyl)-2-(1H-imidazol-4-yl)ethyl] pyridazine], > 0.5 µM.
With `c1cncc(CC(c2cnc[nH]2)c2cccc3c2CCO3)c1` (stereo not drawn) [Compound 57, 3-[2-(2,3-dihydro-1-benzofuran-4-yl)-2-(1H-imidazol-4-yl)ethyl] pyridine] the figure was > 0.5 µM; with `Cc1cccc([C@H](Cc2cccnc2)c2cnc[nH]2)c1C` [Compound 58, 3-[(2S)-2-(2,3-dimethylphenyl)-2-(1H-imidazol-4-yl)ethyl] pyridine], 0.05 to 0.5 µM.
`Cc1cccc([C@@H](Cc2cccnc2)c2cnc[nH]2)c1C` [Compound 59, 3-[(2R)-2-(2,3-dimethylphenyl)-2-(1H-imidazol-4-yl)ethyl] pyridine]: the EC50 is < 0.01 µM.
With `Cc1cccc([C@H](Cc2cccnc2)c2cnc[nH]2)c1Cl` [Compound 60, 3-[(2S)-2-(2-chloro-3-methylphenyl)-2-(1H-imidazol-4-yl)ethyl] pyridine] the figure was < 0.01 µM; with `Cc1cccc([C@@H](Cc2cccnc2)c2cnc[nH]2)c1Cl` [Compound 61, 3-[(2R)-2-(2-chloro-3-methylphenyl)-2-(1H-imidazol-4-yl)ethyl]pyridine], 0.05 to 0.5 µM; with `Cc1c(Cl)cccc1[C@H](Cc1cccnc1)c1cnc[nH]1` [Compound 62, 3-[(2S)-2-(3-chloro-2-methylphenyl)-2-(1H-imidazol-4-yl)ethyl]pyridine], > 0.5 µM.
The value for `Cc1c(Cl)cccc1[C@@H](Cc1cccnc1)c1cnc[nH]1` [Compound 63, 3-[(2R)-2-(3-chloro-2-methylphenyl)-2-(1H-imidazol-4-yl)ethyl]pyridine] was < 0.01 µM; that for `Cc1cc(C[C@H](c2cnc[nH]2)c2cccc(C)c2C)n(C)n1` [Compound 68, 5-[(2S)-2-(2,3-dimethylphenyl)-2-(1H-imidazol-4-yl)ethyl]-1,3-dimethyl-1H-pyrazole] was > 0.5 µM; that for `Cc1cc(C[C@@H](c2cnc[nH]2)c2cccc(C)c2C)n(C)n1` [Compound 69, 5-[(2R)-2-(2,3-dimethylphenyl)-2-(1H-imidazol-4-yl)ethyl]-1,3-dimethyl-1H-pyrazole] was < 0.01 µM.
With `Cc1nccc(C[C@H](c2cnc[nH]2)c2cccc(C)c2C)n1` [Compound 70, 4-[(2S)-2-(2,3-dimethylphenyl)-2-(1H-imidazol-4-yl)ethyl]-2-methyl-pyrimidine] the figure was < 0.01 µM.
With `Cc1nccc(C[C@@H](c2cnc[nH]2)c2cccc(C)c2C)n1` [Compound 71, 4-[(2R)-2-(2,3-dimethylphenyl)-2-(1H-imidazol-4-yl)ethyl]-2-methyl-pyrimidine], the EC50 is > 0.5 µM.
The value for `Cc1cccc([C@H](Cc2ccnc(C(F)(F)F)n2)c2cnc[nH]2)c1C` [Compound 72, 4-[(2S)-2-(2,3-dimethylphenyl)-2-(1H-imidazol-4-yl)ethyl]-2-(trifluoromethyl) pyrimidine] was < 0.01 µM.
On to `Cc1cccc([C@@H](Cc2ccnc(C(F)(F)F)n2)c2cnc[nH]2)c1C` [Compound 73, 4-[(2R)-2-(2,3-dimethylphenyl)-2-(1H-imidazol-4-yl)ethyl]-2-(trifluoromethyl) pyrimidine], for which the EC50 is > 0.5 µM.
The value for `Cc1cnc(C[C@H](c2cnc[nH]2)c2cccc(C)c2C)nc1` [Compound 74, 2-[(2S)-2-(2,3-dimethylphenyl)-2-(1H-imidazol-4-yl)ethyl]-5-methyl-pyrimidine] was > 0.5 µM; that for `Cc1cnc(C[C@@H](c2cnc[nH]2)c2cccc(C)c2C)nc1` [Compound 75, 2-[(2R)-2-(2,3-dimethylphenyl)-2-(1H-imidazol-4-yl)ethyl]-5-methylpyrimidine] was 0.05 to 0.5 µM; that for `Cc1cccc([C@H](Cc2ccc(=O)[nH]n2)c2cnc[nH]2)c1C` [Compound 76, 6-[(2S)-2-(2,3-dimethylphenyl)-2-(1H-imidazol-4-yl)ethyl]-2,3-dihydropyridazin-3-one] was > 0.5 µM.
`Cc1cccc([C@@H](Cc2ccc(=O)[nH]n2)c2cnc[nH]2)c1C` [Compound 77, 6-[(2R)-2-(2,3-dimethylphenyl)-2-(1H-imidazol-4-yl)ethyl]-2,3-dihydropyridazin-3-one]: the EC50 was < 0.01 µM.
The value for `Cc1ccnc(C[C@H](c2cnc[nH]2)c2cccc(C)c2C)n1` [Compound 78, 2-[(2S)-2-(2,3-dimethylphenyl)-2-(1H-imidazol-4-yl)ethyl]-4-methylpyrimidine] was > 0.5 µM; that for `Cc1ccnc(C[C@@H](c2cnc[nH]2)c2cccc(C)c2C)n1` [Compound 79, 2-[(2R)-2-(2,3-dimethylphenyl)-2-(1H-imidazol-4-yl)ethyl]-4-methylpyrimidine] was 0.05 to 0.5 µM; that for `Cc1cccc([C@H](Cc2cccc(C(F)(F)F)n2)c2c[nH]cn2)c1C` [Compound 80, 2-[(2S)-2-(2,3-dimethylphenyl)-2-(1H-imidazol-4-yl)ethyl]-6-(trifluoromethyl) pyridine] was < 0.01 µM.
The value for `Cc1cccc([C@@H](Cc2cccc(C(F)(F)F)n2)c2c[nH]cn2)c1C` [Compound 81, 2-[(2R)-2-(2,3-dimethylphenyl)-2-(1H-imidazol-4-yl)ethyl]-6-(trifluoromethyl) pyridine] was > 0.5 µM; that for `Cc1cncc(C[C@H](c2cnc[nH]2)c2cccc(C)c2C)n1` [Compound 82, 2-[(2S)-2-(2,3-dimethylphenyl)-2-(1H-imidazol-4-yl)ethyl]-6-methylpyrazine] was 0.05 to 0.5 µM; that for `Cc1cncc(C[C@@H](c2cnc[nH]2)c2cccc(C)c2C)n1` [Compound 83, 2-[(2R)-2-(2,3-dimethylphenyl)-2-(1H-imidazol-4-yl)ethyl]-6-methylpyrazine] was < 0.01 µM.
For the compound `COCCNc1cccc(CC(c2cnc[nH]2)c2cccc(C)c2C)n1` (stereo not drawn) [Compound 84, 6-[2-(2,3-dimethylphenyl)-2-(1H-imidazol-4-yl)ethyl]-N-(2-methoxyethyl) pyridin-2-amine], the EC50 was < 0.01 µM.
As for `Cc1cccc(C(Cc2ccnnc2)c2cnc[nH]2)c1C` (stereo not drawn) [Compound 85, 4-[2-(2,3-dimethylphenyl)-2-(1H-imidazol-4-yl)ethyl] pyridazine], the half-maximal effective concentration (EC50) is 0.01 to 0.05 µM.
The value for `Cc1cccc(C(Cc2ccc(=O)[nH]n2)c2c[nH]cn2)c1C` (stereo not drawn) [Compound 86, 6-[2-(2,3-dimethylphenyl)-2-(1H-imidazol-4-yl)ethyl]-2,3-dihydropyridazin-3-one] was < 0.01 µM; that for `Cc1cccc(C(Cc2cccc(=O)[nH]2)c2cnc[nH]2)c1C` (stereo not drawn) [Compound 87, 6-[2-(2,3-dimethylphenyl)-2-(1H-imidazol-4-yl)ethyl] pyridin-2-ol] was > 0.5 µM; that for `Cc1cncc(CC(c2cnc[nH]2)c2cccc(C)c2C)n1` (stereo not drawn) [Compound 88, 2-[2-(2,3-dimethylphenyl)-2-(1H-imidazol-4-yl)ethyl]-6-methylpyrazine] was 0.01 to 0.05 µM.
With `COc1cncc(CC(c2cnc[nH]2)c2cccc(C)c2C)n1` (stereo not drawn) [Compound 89, 2-[2-(2,3-dimethylphenyl)-2-(1H-imidazol-4-yl)ethyl]-6-methoxy-pyrazine] the figure was < 0.01 µM.
